Where a SMILES comes first, the peptide text is derived from it.
How the values were obtained:
[1] = system: Aβ42; assay: ThT fluorescence aggregation kinetics of Aβ42; type: biochemical; settings: ThT assay
Method: In order to investigate the effects of DesBP on the aggregation of Aβ42, we carried out in vitro aggregation assays using thioflavin T (ThT) as an amyloid-specific fluorescent probe[63],[64]. We monitored fibril formation for Aβ42 at a concentration of 2 µM in the absence and presence of a range of concentrations (0.25–16 fold excess) of DesBP at 37 °C under quiescent conditions, using a highly reproducible protocol previously described. We then validated our results by means of far-UV circular dichroism (CD) and atomic force microscopy (AFM).
Monomeric Aβ42 peptide solutions were prepared by dissolving the lyophilized peptide in 6 M GuHCl. A Superdex 75 10/300 GL column (GE Healthcare) was used to purify Aβ42 monomers from Aβ42 oligomers and salt with a flow rate of 0.5 ml/min, and eluted in 20 mM sodium phosphate buffer (pH 8) with 200 μM EDTA. By collecting the centres of the peaks, the monomeric Aβ42 concentrations were determined from the integrated peak area with ε280 = 1,495 L mol^−1 cm^−1. Aβ42 monomers were then diluted to the target concentration with buffer and 20 μM ThT was added from a 1 mM stock. […] Assays were carried out at 37 °C under quiescent conditions in a plate reader (Fluostar Optima; BMG Labtech). ThT fluorescence was measured through the bottom of the plate with 440 nm excitation and 480 nm emission filters, with five repeats per sample. […]

[2] = system: islet amyloid polypeptide, Aβ and α-synuclein; settings: cited from earlier work
Description: In this study, we apply this design strategy to generate a bicyclic peptide capable of binding Aβ42 and of interfering with its aggregation process. The aggregation of Aβ42 is a complex process resulting from the combination of different microscopic steps and involving a variety of molecular species[35],[36]. […] Therefore, some therapeutic strategies aim at decreasing the concentrations of these oligomeric species by delaying or preventing their formatio ...

[3] = target: T1, Aβ42 monomers (Homo sapiens, UniProt P05067); assay: Bio-layer interferometry (BLI) binding of DesBP to sensor-coupled Aβ42 monomers; settings: DesBP 50 and 100 μM, 30 °C
T1 construct: the 42-residue form of the amyloid β peptide (Aβ42)
Method: To test for direct peptide-peptide interaction, biolayer interferometry (BLI) was performed on the Octet RED96 System (ForteBio, Menlo Park, USA). DesBP was used as interaction partner for sensor-coupled Aβ42. Coupled sensors were first dipped into ForteBio kinetics buffer (PBS, 0.1% BSA, 0.02% Tween20 and 0.05% sodium azide, pH 7.4) to establish a stable baseline, then into different concentrations of DesBP and finally in pure kinetics buffer again to monitor dissociation. Both association and dissociation processes were monitored at 30 °C over 50 and 200 s, respectively. In the data analysis, all curves were globally fit with a 1:1 binding model.

[4] = system: N2 worms; assay: C. elegans N2 control worms motility / fitness; type: in vivo; settings: same concentration of DesBP (40 μM); compared to effect on Aβ worms
Description: We thus administered DesBP to Aβ worms at day 4 (D4) of adulthood, when Aβ42 aggregates are already formed, and paralysis is ongoing, and compared the resulting effects of the addition of DesBP to those observed in a control worm model, N2 (see “Materials and methods” section). […] On the other hand, the effects of the same concentration of DesBP to control N2 worms were negligible when compared to the effect observed on Aβ worms (Supplementary Fig. 12).
Media Standard conditions were used for the propagation of C. elegans. Briefly, the animals were synchronized by hypochlorite bleaching, hatched overnight in M9 (3 g/l KH2PO4, 6 g/l Na2HPO4, 5 g/l NaCl, […]) buffer, and subsequently cultured at 20 °C on nematode growth medium (NGM) (CaCl2 1 mM, MgSO4 1 mM, cholesterol 5 µg/ml, […] pH 6, Agar 17 g/L, NaCl 3 g/l, casein 7.5 g/l) plates seeded with the E. coli strain OP50. Saturated cultures of OP50 were grown by inoculating 50 mL of LB medium (tryptone 10 g/l, NaCl 10 g/l, yeast extract 5 g/l) with OP50 and incubating the culture for 16 h at 37 °C. NGM plates were seeded with bacteria by adding 350 µl of saturated OP50 to each plate and leaving the plates at 20 °C for 2–3 days. On day 3 after synchronization, the animals were placed on NGM plates containing 5-fluoro-2′deoxy-uridine (FUDR) (75 μM, unless stated otherwise) to inhibit the growth of offspring. […]

Cc1cc(C)cc(C)c1 [TMB, 1,3,5-trimethylbenzene]
effect on Aβ42 aggregation (control compounds) ([1]; Supplementary Fig. 7): slightly delayed the nucleation step of Aβ42 aggregation | magnitude of ThT fluorescence (control compound) ([1]; Supplementary Fig. 7b): did not show significant changes on the magnitude of ThT fluorescence

CC(C)[C@@H](CC[C@@H](C)[C@H]1CC[C@H]2[C@@H]3[C@H](O)C[C@H]4C[C@@H](NCCCNCCCCNCCCN)CC[C@]4(C)[C@H]3CC[C@]12C)OS(=O)(=O)O [trodusquemine]
modulation of aggregation process [2]: redirecting them towards the formation of non-toxic aggregates

CC[C@H](C)[C@@H]1NC(=O)CNC(=O)[C@H](CC(C)C)NC(=O)[C@H](CCCCN)NC(=O)[C@@H](NC(=O)[C@H](C)NC(=O)[C@H](C)NC(=O)[C@@H](N)CCCNC(=N)N)CSCc2cc3cc(c2)CSC[C@H](NC(=O)[C@H](C)NC(=O)[C@H](CCCCN)NC1=O)C(=O)N[C@@H]([C@@H](C)O)C(=O)N[C@@H](CO)C(=O)N[C@@H](C(C)C)C(=O)N[C@@H](Cc1ccc(O)cc1)C(=O)N[C@@H](Cc1c[nH]cn1)C(=O)N[C@@H](C)C(=O)N[C@H](C(=O)NCC(=O)NCC(=O)N[C@@H](CCCCN)C(=O)N[C@@H](CCCNC(=N)N)C(=O)N[C@@H](CCCNC(=N)N)C(=O)O)CSC3 [DesBP] (HELM PEPTIDE1{R.A.A.C.K.L.G.I.K.A.C.T.S.V.Y.H.A.C.G.G.K.R.R}|CHEM1{[c1c(C[*:1])cc(C[*:3])cc1C[*:2]]}$PEPTIDE1,CHEM1,4:R3-1:R1|PEPTIDE1,CHEM1,11:R3-1:R2|PEPTIDE1,CHEM1,18:R3-1:R3$$$V2.0)
koff ([3]; pH 7.4, single-exponential fit, read-out: dissociation rate kd): 0.06 ± 0.002 s⁻¹ | Kd ([3]; Octet RED96, kinetics buffer PBS, 0.1% BSA, 0.02% Tween20, pH 7.4, association 50 s, dissociation 200 s, global fit 1:1 binding model, read-out: dissociation constant (KD)): 640 ± 260 µM | effect on control N2 worms [4]: negligible

O=C(O[C@@H]1Cc2c(O)cc(O)cc2O[C@@H]1c1cc(O)c(O)c(O)c1)c1cc(O)c(O)c(O)c1 [EGCG, epigallocatechin gallate]
modulation of aggregation process [2]: redirecting them towards the formation of non-toxic aggregates
